Laboratory results: paper PMC3881672, “In Vitro Permeation of Micronized and Nanonized Alaptide from Semisolid Formulations” (The Scientific World Journal, 2013)
Marks after values point to notes of the source that are not given here.

Experiments:
[1] = In vitro transdermal permeation, Franz diffusion cell; conditions: for Cumulative permeated amounts Q t: mean ± SD n = 5; for apparent permeability coefficient K p × 10^−3: Kp = J/Cd, Cd 1.0 × 10^4 μg/mL
[2] = test system: experimental injury; design: method as in ref 8 = [8]; 8 Radl S Kasafirek E Krejci I Alaptide Drugs of the Future 1990 15 445 447; conditions: pigs; cited from earlier work
[3] = test system: CYP1A2; design: method as in PMID 3726896, PMID 2905482; conditions: hepatocytes; cited from earlier work
[4] = test system: CYP1B1; design: method as in PMID 3726896, PMID 2905482; conditions: hepatocytes; cited from earlier work
[5] = design: method as in ref 8, 9 = [8]; 8 Radl S Kasafirek E Krejci I Alaptide Drugs of the Future 1990 15 445 447 || [9]; 9 Jampílek J Opatrilova R Rezacova A Oktabec Z Dohnal J Inventors; Faculty of Pharmacy, University of Veterinary and Pharmaceutical Sciences Brno, assignee, “Alaptide: Methods of effecting its solubil; conditions: cited from earlier work
[6] = design: method as in PMID 3726896, PMID 1687590; conditions: similar metabolic profile also found in man; cited from earlier work
[7] = test system: CYP1A1; design: method as in PMID 3726896, PMID 2905482; conditions: hepatocytes; cited from earlier work
[8] = test system: experimental skin injuries; design: method as in ref 8 = [8]; 8 Radl S Kasafirek E Krejci I Alaptide Drugs of the Future 1990 15 445 447; conditions: rats; cited from earlier work
[9] = design: method as in ref 8, 9 = [8]; 8 Radl S Kasafirek E Krejci I Alaptide Drugs of the Future 1990 15 445 447 || [9]; 9 Jampílek J Opatrilova R Rezacova A Oktabec Z Dohnal J Inventors; Faculty of Pharmacy, University of Veterinary and Pharmaceutical Sciences Brno, assignee, “Alaptide: Methods of effecting its solubil; conditions: octanol-water; cited from earlier work
[10] = design: method as in PMID 3726896, PMID 2905482; conditions: cited from earlier work

## C[C@@H]1NC(=O)C2(CCCC2)NC1=O [Micro, (S)-8-Methyl-6,9-diazaspiro[4.5]decan-7,10-dione]
[1]; from buffer
  log K p: −1.77
[1]; from buffer, 0.5 h
  Cumulative permeated amounts Q t: 12.6 ± 1.9^a μg/cm^2
[1]; from buffer, 1 h
  Cumulative permeated amounts Q t: 40.1 ± 8.0^a μg/cm^2
[1]; from buffer, 2 h
  Cumulative permeated amounts Q t: 150.8 ± 7.2^a μg/cm^2
[1]; from buffer, 4 h
  Cumulative permeated amounts Q t: 418.3 ± 24.6^b μg/cm^2
[1]; from buffer, 6 h
  Cumulative permeated amounts Q t: 1189.0 ± 105.9^d μg/cm^2
[1]; from buffer, 24 h
  Cumulative permeated amounts Q t: 3897.1 ± 295.6^f μg/cm^2
[1]; from cream 1% (w/w), 0.5 h
  Cumulative permeated amounts Q t: 89.9 ± 4.0^a μg/cm^2
[1]; from cream 1% (w/w), 1 h
  Cumulative permeated amounts Q t: 206.7 ± 8.9^a μg/cm^2
[1]; from cream 1% (w/w), 2 h
  Cumulative permeated amounts Q t: 568.7 ± 7.2^b μg/cm^2
[1]; from cream 1% (w/w), 4 h
  Cumulative permeated amounts Q t: 1414.5 ± 21.3^d μg/cm^2
[1]; from cream 1% (w/w), 6 h
  Cumulative permeated amounts Q t: 2533.7 ± 9.2^f μg/cm^2
[1]; from cream 1% (w/w), 24 h
  Cumulative permeated amounts Q t: 10602.6 ± 18.2^h μg/cm^2
[1]; from gel
  log K p: −1.23
[1]; from gel 1% (w/w), 0.5 h
  Cumulative permeated amounts Q t: 220.5 ± 11.1^abc μg/cm^2
[1]; from gel 1% (w/w), 1 h
  Cumulative permeated amounts Q t: 401.6 ± 30.9^c μg/cm^2
[1]; from gel 1% (w/w), 2 h
  Cumulative permeated amounts Q t: 626.4 ± 211.1^d μg/cm^2
[1]; from gel 1% (w/w), 4 h
  Cumulative permeated amounts Q t: 1474.5 ± 306.9^f μg/cm^2
[1]; from gel 1% (w/w), 6 h
  Cumulative permeated amounts Q t: 1927.6 ± 241.2^g μg/cm^2
[1]; from gel 1% (w/w), 24 h
  Cumulative permeated amounts Q t: 13766.8 ± 92.8^i μg/cm^2
[1]; from ointment 1% (w/w), 0.5 h
  Cumulative permeated amounts Q t: 75.3 ± 5.4^cd μg/cm^2
[1]; from ointment 1% (w/w), 1 h
  Cumulative permeated amounts Q t: 84.8 ± 7.3^de μg/cm^2
[1]; from ointment 1% (w/w), 2 h
  Cumulative permeated amounts Q t: 96.7 ± 5.9^fg μg/cm^2
[1]; from ointment 1% (w/w), 4 h
  Cumulative permeated amounts Q t: 112.4 ± 7.3^h μg/cm^2
[1]; from ointment 1% (w/w), 6 h
  Cumulative permeated amounts Q t: 126.4 ± 3.7^i μg/cm^2
[1]; from ointment 1% (w/w), 24 h
  Cumulative permeated amounts Q t: 151.9 ± 9.5^j μg/cm^2
[1]; from the buffer and other semisolid pharmaceutical compositions
  permeation through the skin, fold more than the nanonized form: ca. 2 fold
[1]; medium buffer
  lag time T lag: 0.69 ± 0.38 h
  apparent permeability coefficient K p × 10^−3: 16.84 10^−3 cm/h
[1]; medium buffer, linearized Q t vs time, six time points
  nonsteady-state permeation flux J: 168.4 ± 8.7 μg/cm^2/h
[1]; medium cream
  lag time T lag: 0.57 ± 0.01 h
  nonsteady-state permeation flux J: 452.2 ± 0.8 μg/cm^2/h
  apparent permeability coefficient K p × 10^−3: 45.22 10^−3 cm/h
[1]; medium gel
  lag time T lag: 1.03 ± 0.23 h
  nonsteady-state permeation flux J: 588.0 ± 4.8 μg/cm^2/h
  apparent permeability coefficient K p × 10^−3: 58.80 10^−3 cm/h

## C[C@@H]1NC(=O)C2(CCCC2)NC1=O [alaptide, (S)-8-Methyl-6,9-diazaspiro[4.5]decan-7,10-dione]
[2]
  skin regeneration after application on experimental injury: faster skin regeneration
[3]
  Induction of CYP1A2: did not occur
[4]
  Induction of CYP1B1: did not occur
[5]
  solubility: poorly soluble
[5]; sunlight
  stability: stable in the sunlight
[6]
  excretion: excreted unchanged, mostly via urine
[7]
  Induction of CYP1A1: did not occur
[8]
  curing of experimental skin injuries: accelerated curing experimental skin injuries
[9]
  experimental log P o/w: 1.39
[1]; both forms of alaptide, ointment
  permeation through the skin from ointment: minimal
[10]
  toxic effects (including skin irritation): No toxic effects
